{
  "source": "PubChem BioAssay AID1508591",
  "data": [
    {"details": "rat; liver microsomes; pH 7.4; 15.0 min; 1.0 µM", "units": {"half-life": "min"}, "values": [
      {"compound": "CS(=O)(=O)N1CCN(c2nc(-c3ccc(Br)cc3)cs2)CC1", "half-life": "> 30"},
      {"compound": "Fc1ccc(CN2CCOC[C@H]2c2ncc(-c3ccc(Cl)s3)[nH]2)cc1", "half-life": 3.47},
      {"compound": "COc1ccc(-c2[nH]nc3ncc(-c4ccc(CO)cc4)nc23)cc1F", "half-life": 11.3},
      {"compound": "Cc1ccc(CSCc2ccc(C(=O)NC3CC3)o2)cc1", "half-life": 1.7},
      {"compound": "Cc1ccc(S(=O)(=O)Nc2cnccc2C(=O)Nc2ccccc2)cc1", "half-life": 2.6},
      {"compound": "[2H]C([2H])(Nc1nc(-c2ccccc2C([2H])(C([2H])([2H])[2H])C([2H])([2H])[2H])ncc1C)c1ccc(-n2ccnn2)cc1", "half-life": 13},
      {"compound": "CSc1ccccc1N1CCN(CCCCCC(=O)NC2CCCc3ccccc32)CC1", "note": "(stereo not given)", "half-life": 2.21},
      {"compound": "O=C1CCCC2=C1C1(CCSC1)N=C(Nc1nc3ccccc3o1)N2", "note": "(stereo not given)", "half-life": 2.5},
      {"compound": "Cc1ccc(-c2nc(NCC(=O)Nc3cccc(C(=O)O)c3)c3ccccc3n2)cc1", "half-life": "> 30"},
      {"compound": "NC(=O)C1CCN(c2nc(-c3cccc4sc5ccccc5c34)cs2)CC1", "half-life": "> 30"},
      {"compound": "O=C(Nc1ncc(Cc2ccc(C(F)(F)F)cc2)s1)c1ccc(-c2ccccc2)o1", "half-life": "> 30"},
      {"compound": "COc1ccc(-n2nc(C3CCCN(C(=O)Cc4ccc(F)cc4)C3)[nH]c2=O)cc1", "note": "(stereo not given)", "half-life": 8.48},
      {"compound": "O=S(=O)(Nc1nccs1)c1ccc(Nc2nc(-c3ccc(F)cc3)cs2)cc1", "half-life": "> 30"},
      {"compound": "CCc1oc2ccccc2c1C(=O)c1cc(I)c(O)c(I)c1", "half-life": 13.7},
      {"compound": "FC(F)(F)c1cc(-c2ccc(CNc3nc(-c4ccccc4C(F)(F)F)nc4ccsc34)cc2)ccn1", "half-life": 14.8},
      {"compound": "CCOc1ccc(CCNC(=O)c2cc3ncccc3n2Cc2cccc(C)n2)cc1OCC", "half-life": 6.7},
      {"compound": "CCOc1ccc(CCNC(=O)c2cc3ccncc3n2Cc2cccc(C)c2)cc1OCC", "half-life": 7.1},
      {"compound": "Fc1ccc(CNc2nc(-c3ccccc3C(F)(F)F)nc3ccccc23)cc1", "half-life": 19.8},
      {"compound": "COC(=O)CNC(=O)c1nc(-c2ccc(F)cc2)c2ccccn12", "half-life": 0.91},
      {"compound": "CC(=O)c1c(C)c(C(=O)Nc2cccc([S+](=O)([O-])N3CCCCCC3)c2)n(C)c1C", "half-life": 1.4},
      {"compound": "CCOC(=O)C1CCN(C(=O)Nc2ccc3c(c2)nc(C)n3C)CC1", "half-life": 1},
      {"compound": "Cc1ccc2nc(-c3ccccn3)c(Nc3ccccc3C)n2c1", "half-life": 12.2},
      {"compound": "COc1ccc(C(=O)N2CCC3(CC2)CN(c2cccc(-c4ccccc4)c2)C3)cc1", "half-life": 22},
      {"compound": "Nc1nc2c(s1)C(c1cccc(Cl)c1Cl)CC(=O)N2", "note": "(stereo not given)", "half-life": 26},
      {"compound": "COc1cc(F)ccc1-c1nc(-c2c(C)noc2C)cc2c1cc(C)n2C", "half-life": 21.6},
      {"compound": "N#Cc1ccc(S(=O)(=O)Nc2cnccc2C(=O)Nc2nc(-c3ccccc3)cs2)cc1", "half-life": "> 30"},
      {"compound": "Cc1cc(C)nc(NC(=S)N2CCN(c3ccc(Cl)cc3[N+](=O)[O-])CC2)c1", "half-life": 15},
      {"compound": "COc1cccc(NCCC2(c3ccccc3)CC(C)(C)OC(C)(C)C2)c1", "half-life": 1.6},
      {"compound": "Cc1cc(Cl)ccc1COc1ccnn1-c1cc(C(=O)O)ccn1", "half-life": "> 30"},
      {"compound": "O=c1cc(CN2CCCN(c3ccc(C(F)(F)F)cn3)CC2)nc2ccccn12", "half-life": 8.7},
      {"compound": "Cc1ccc(S(=O)(=O)Nc2cc(Br)ccc2C(=O)Nc2nc(-c3ccccc3)cs2)cc1", "half-life": 9.6},
      {"compound": "Cc1cccc(C)c1C(=O)Nc1cccc([S+](=O)([O-])N2CCCCCC2)c1", "half-life": 1.6},
      {"compound": "Cc1cc(C)nc(NC(=S)N2CCN(c3ccc(F)cc3F)CC2)c1", "half-life": "> 30"},
      {"compound": "Oc1ccc(-c2nc(C3CC3)nc3c2CCN(CC2CCCCC2)CC3)cc1", "half-life": 5.28},
      {"compound": "O=C(Nc1ccc(Oc2ccnc3[nH]ccc23)c(F)c1)c1cccn(-c2ccc(F)cc2)c1=O", "half-life": 13.1},
      {"compound": "CCOC(=O)N1CCc2c(sc(NCc3sccc3C)c2C(=O)Nc2cc(Cl)ccc2OC)C1", "half-life": 9.8},
      {"compound": "Fc1ccc(Nc2nc(-c3ccccc3)nc3ccccc23)cc1F", "half-life": "> 30"},
      {"compound": "CC1CCN(C(=O)c2ccc(-c3ccc(N4CCSCC4)nc3)cc2)CC1", "half-life": 1.52},
      {"compound": "COc1cc(-c2nc(-c3ccccc3)c(-c3cccs3)[nH]2)cc(OC)c1O", "half-life": "> 30"},
      {"compound": "CC/C=C\\C/C=C\\C/C=C\\C/C=C\\C/C=C\\C/C=C\\CCC(=O)NCCO", "half-life": 4.94},
      {"compound": "COc1cc(-c2csc(N3CCC(C(N)=O)CC3)n2)cc(OC)c1OC", "half-life": "> 30"},
      {"compound": "NC(CO)(CO)CCc1ccc(Sc2cccc(OCc3ccccc3)c2)cc1Cl", "half-life": "> 30"},
      {"compound": "CCn1cc(C(=O)N2CCN(c3cccc(Cl)c3)CC2)c2cc(OC)c(OC)cc2c1=O", "half-life": 7.12},
      {"compound": "O=C(Nc1ncnc2sc3c(c12)CCC3)c1ccco1", "half-life": 5.6},
      {"compound": "CCOC(=O)C1CCN(C(=O)C2(NC(=O)Nc3ccc(F)cc3F)CCCCC2)CC1", "half-life": 2.7},
      {"compound": "CC(C)(C)c1ccc(S(=O)(=O)N2CCC(c3ccncc3)CC2)cc1", "half-life": 14.3},
      {"compound": "COc1ccc2[nH]c(=O)c(-c3noc(-c4cccs4)n3)cc2c1", "half-life": 13},
      {"compound": "COc1ccc(OC)c(-c2nnc3n2N=C(c2c(OC)cccc2OC)CS3)c1", "half-life": 1.4},
      {"compound": "Cc1c(Cl)cccc1-n1ncc(C(=O)Nc2ccc(Br)cc2F)c1C1CCNCC1", "half-life": 9.8},
      {"compound": "Clc1ccc(-c2noc3ncnc(N4CCCCC4)c23)cc1", "half-life": 5.8},
      {"compound": "OCC(O)CCO/N=C1/C(c2c(O)[nH]c3ccccc23)=Nc2ccccc21", "note": "(stereo not given)", "half-life": 10},
      {"compound": "CC[C@H]1CN(C)[C@H]2Cc3c([nH]c4ccccc34)C(=O)C[C@H]1[C@H]2C(=O)OC", "half-life": 11.3},
      {"compound": "NC(=O)C1CCN(c2nccc(Cl)n2)CC1", "half-life": "> 30"},
      {"compound": "c1ccc(-c2nc(N3CCCCCC3)c3ccccc3n2)nc1", "half-life": 2.18},
      {"compound": "COc1ccc(S(=O)(=O)N2CCCCCC2)cc1NC(=O)Cc1n[nH]c(=O)c2ccccc12", "half-life": 2.9},
      {"compound": "Cc1cc(NS(=O)(=O)c2ccc(N(C)C(=O)Cc3ccc(Cl)c(Cl)c3)cc2)no1", "half-life": "> 30"},
      {"compound": "O=C(NCc1cccc(C(F)(F)F)c1)c1ccc(CN2CCCCC2)cc1", "half-life": 15},
      {"compound": "O=C(CCCN1CCC(n2c(=O)[nH]c3ccccc32)CC1)c1ccc(F)cc1", "half-life": 10.9},
      {"compound": "O=C(c1cccs1)c1nonc1C(=O)c1cccs1", "half-life": 1.49},
      {"compound": "COc1cc2c(Oc3ccc(-c4cnc(Nc5ccc(F)cc5)n(C)c4=O)cc3F)ccnc2cc1OCCCN1CCOCC1", "half-life": "> 30"},
      {"compound": "O=C(NCCCNc1nc(Nc2cccc(CN3CCOCC3)c2)ncc1C1CC1)C1CCC1", "half-life": 6.85},
      {"compound": "COC(=O)CNC(=O)c1nc(-c2ccc(Cl)nc2)c2ccccn12", "half-life": 4.72},
      {"compound": "COc1cccc2c1CCCC2CCCN1CCN(C2CCCCC2)CC1", "note": "(stereo not given)", "half-life": 3.39},
      {"compound": "Nc1nc2c(s1)C(c1ccc(F)cc1F)CC(=O)N2", "note": "(stereo not given)", "half-life": "> 30"},
      {"compound": "COc1cc(/C=C(\\C#N)C(=O)c2ccc(O)c(O)c2)cc(I)c1O", "half-life": "> 30"},
      {"compound": "COc1ccccc1-c1[nH]nc2ncc(-c3ccc(C)cc3)nc12", "half-life": 3},
      {"compound": "COc1cccc(-c2nc(-c3c(C)noc3C)cc3[nH]c(C)cc23)c1OC", "half-life": 10.2},
      {"compound": "Cc1cccc(CN2CCN(c3ccccn3)CC2)c1", "half-life": 2.4},
      {"compound": "C[C@]12N[C@H](Cc3ccccc31)c1ccccc12", "half-life": "> 30"},
      {"compound": "COc1ccc(CN2CCc3nc(N4CCN(c5ccc(F)cc5)CC4)ncc3C2)c(OC)c1OC", "half-life": 1.65},
      {"compound": "CC/C=C\\CC1C(=O)CCC1CC(=O)OC", "note": "(stereo not given)", "half-life": "> 30"},
      {"compound": "O=C(Nc1ccc(S(=O)(=O)Nc2ncc(-c3ccccc3)s2)cc1)c1ccc2ccccc2c1", "half-life": "> 30"},
      {"compound": "COc1ccc(C(=O)Nc2nc(-c3ccccc3)cs2)cc1NS(=O)(=O)c1ccc(C)cc1", "half-life": 13},
      {"compound": "COc1ccc(OC)c(-n2c3c(cc(-c4nc(-c5ccc(Cl)cc5)cs4)c2=O)C(=O)CC(C)(C)C3)c1", "half-life": "> 30"},
      {"compound": "CN(C)CC/C=C1\\c2ccccc2Sc2ccc(Cl)cc21", "half-life": 1.76}
    ]}
  ]
}
